Results reported in PubChem BioAssay AID489010 (Southern Research Specialized Biocontainment Screening …, 2010).
Active and inactive are the calls of the source. No rule for the calls is given here.

Experiment: M. tuberculosis H37Rv growth inhibition, dose response, strain H37Rv (AID 489010)
Conditions: M. tuberculosis H37Rv growth inhibition; at 100 µM (top of the series)
For O=C(Cc1cc(=O)[nH][nH]1)N/N=C/C(Cl)=C/c1ccccc1, the growth inhibition was 6.66% (inactive). With Cc1ccc(O)c(N=CC2=C(O)c3ccccc3C2=O)c1 the growth inhibition was 9.56% (inactive). For O=C(Cc1cc(=O)[nH][nH]1)N/N=C/c1ccccc1[N+](=O)[O-], the growth inhibition was -0.39% (inactive). With C/C(=N\NC(=O)Cc1cc(=O)[nH][nH]1)c1cccc([N+](=O)[O-])c1 the growth inhibition was 2.86% (inactive). For COc1ccc(/C=C2/C(=O)N(c3ccccc3)N=C2C)cc1OC, the growth inhibition was 3.28% (inactive). With Fc1ccc(Nc2nc(Oc3ccccc3F)nc(N3CCCC3)n2)cc1 the growth inhibition was -4.07% (inactive). For Cc1ccc(-c2[nH]nc3c2C(c2ccc(OC(=O)N4CCOCC4)cc2)C(C#N)=C(N)O3)cc1 (configuration not stated), the growth inhibition was 3.59% (inactive). For Cc1ccc(SCC2=NNC(=O)C2)cc1, the growth inhibition was 5.45% (inactive). For CC(=O)Nc1cc(OC(=O)c2ccco2)cc(OC(=O)c2ccco2)c1, the growth inhibition was 1.93% (inactive). In the case of N#CC(C#N)C(c1ccsc1)c1c(-c2ccccc2)[nH][nH]c1=O (configuration not stated), the growth inhibition is reported as -3.85% (inactive). With O=C(CSCc1cc(=O)[nH][nH]1)Nc1ccc(F)cc1 the growth inhibition was 0.76% (inactive). With C/C(=N/NC(=O)Cc1cc(=O)[nH][nH]1)c1ccc([N+](=O)[O-])cc1 the growth inhibition was -1.21% (inactive). For CCOC(=O)C/C(C)=N/NC(=O)COc1ccccc1C, the growth inhibition was 2.99% (inactive). With O=C1NC2=C(CCc3ccccc32)C(c2ccccc2)N1 (configuration not stated) the growth inhibition was 1.42% (inactive). In the case of N#CC1=C(N)Oc2n[nH]c(-c3ccccc3)c2C1c1ccsc1 (configuration not stated), the growth inhibition is reported as 7.24% (inactive). In the case of N#CC1=C(N)Oc2n[nH]c(-c3cccs3)c2C1c1cccs1 (configuration not stated), the growth inhibition is reported as -0.42% (inactive). In the case of COc1ccc(N(C(=O)COc2cccc(C)c2)S(=O)(=O)c2ccc(C)cc2)cc1, the growth inhibition is reported as 16.3% (inactive). In the case of O=c1cc(-c2ccc(Cl)c(Cl)c2)[nH][nH]1, the growth inhibition is reported as 1.79% (inactive). For O=C(Cc1cc(=O)[nH][nH]1)N/N=C/c1ccccc1Cl, the growth inhibition was 2.61% (inactive). With Cc1nc2ccccc2c2c1C(=O)N(C)C2=O the growth inhibition was -4.82% (inactive). In the case of O=C(Cc1cc(=O)[nH][nH]1)N/N=C/c1cccc2ccccc12, the growth inhibition is reported as 0.57% (inactive). For CCCc1c(-c2ccc(O)cc2)nn(-c2ccc(O)cc2)c1-c1ccc(O)cc1, the growth inhibition was 6.41% (inactive). For O=C(Cc1cc(=O)[nH][nH]1)N/N=C/c1c(F)cccc1Cl, the growth inhibition was 1.68% (inactive). For CC(/C=N/NC(=O)Cc1cc(=O)[nH][nH]1)=C\c1ccccc1, the growth inhibition was 2.34% (inactive). For O=C(CCCN1C(=O)/C(=C/c2cccs2)SC1=S)Nc1ccc(O)cc1, the growth inhibition was 21.9% (inactive). With COc1ccc(/C=C2/C(=O)N(c3ccccc3)N=C2C)c(OC)c1 the growth inhibition was 4.59% (inactive). For Cc1cc(-c2[nH]nc3c2C(c2ccc(Cl)cc2)C(C#N)=C(N)O3)c(C)s1 (configuration not stated), the growth inhibition was 8.76% (inactive). With N#Cc1ccc(-n2c(-c3ccccc3)nnc2-c2ccccc2)cc1C#N the growth inhibition was 6.39% (inactive). In the case of CC(=O)N1CCC2(CC1)C(C#N)=C(N)Oc1n[nH]c(CSc3ccc(C)cc3)c12, the growth inhibition is reported as 1.12% (inactive). For O=c1cc(-c2ccc(Br)cc2)[nH][nH]1, the growth inhibition was -4.27% (inactive). For CCOc1cc(C2C(C#N)=C(N)Oc3n[nH]c(-c4ccccc4)c32)ccc1O (configuration not stated), the growth inhibition was 4.87% (inactive). In the case of COC(=O)C(C#N)C(c1cccnc1)c1c(C)[nH][nH]c1=O (configuration not stated), the growth inhibition is reported as -0.4% (inactive). In the case of CCOc1ccc(-c2[nH]nc3c2C(c2ccc(O)cc2)C(C#N)=C(N)O3)cc1 (configuration not stated), the growth inhibition is reported as -1.9% (inactive). In the case of CC(C)CCn1c(N)c(C(=O)NCc2cccs2)c2nc3ccccc3nc21, the growth inhibition is reported as -0.29% (inactive). In the case of N#CC1=C(N)Oc2n[nH]c(-c3cccs3)c2C1c1ccsc1 (configuration not stated), the growth inhibition is reported as 2.91% (inactive). In the case of CCOC(=O)C1CCN(C(=O)c2c(C)oc3c2C(=O)c2ccccc2C3=O)CC1, the growth inhibition is reported as 27.9% (inactive). In the case of Cc1ccccc1-c1nc(CN(C)C(C)c2ccon2)c(C)o1 (configuration not stated), the growth inhibition is reported as 4.51% (inactive). In the case of O=C1CC(CSc2ccc(Cl)cc2)=NN1, the growth inhibition is reported as -0.64% (inactive). For Cc1ccc(C2C(C#N)=C(N)Oc3n[nH]c(-c4cccs4)c32)cc1 (configuration not stated), the growth inhibition was 3.65% (inactive). In the case of Cc1ccsc1/C=N/NC(=O)Cc1cc(=O)[nH][nH]1, the growth inhibition is reported as -3.09% (inactive). In the case of CC1(C)N=C(SCC(=O)Nc2ccc(Cl)cc2)C(c2ccc(Cl)cc2)=N1, the growth inhibition is reported as 2.13% (inactive). For O=C(CSc1nnc(-c2ccccc2Cl)o1)Oc1ccc(Br)cc1, the growth inhibition was 0.13% (inactive). In the case of O=C(Cc1cc(=O)[nH][nH]1)N/N=C/C=C/c1ccccc1, the growth inhibition is reported as -3.45% (inactive). For Cc1ccc(-c2cc(=O)[nH][nH]2)c(C)c1, the growth inhibition was 1.66% (inactive). With CCCc1[nH]nc2c1C(c1ccoc1)C(C#N)=C(N)O2 (configuration not stated) the growth inhibition was 1.3% (inactive). In the case of CCOc1ccccc1C1C(C#N)=C(N)Nc2onc(-c3ccccc3)c21 (configuration not stated), the growth inhibition is reported as -3.07% (inactive). With CCCCc1ccc(NC(=O)CSCc2cc(=O)[nH][nH]2)cc1 the growth inhibition was -4.95% (inactive). With CSCCC1C(C#N)=C(N)Oc2n[nH]c(-c3cccs3)c21 (configuration not stated) the growth inhibition was 11.2% (inactive). For CCCCCCOC(=O)c1ccc(OC(=O)c2cccnc2)cc1, the growth inhibition was 26.1% (inactive). For Cc1nn(C)c(C)c1C1C(C#N)=C(N)Oc2n[nH]c(C)c21 (configuration not stated), the growth inhibition was 2.21% (inactive). With CC(=O)N(C1CC(C)C(C#N)(C#N)C1(C#N)C#N)N(C)C (configuration not stated) the growth inhibition was -7.63% (inactive). For O=C(Cc1cc(=O)[nH][nH]1)N/N=C/c1c(Cl)cccc1Cl, the growth inhibition was 9.07% (inactive).
